Measurements reported in patent US20060052419A1, “Use of pyridly amides as inhibitors of angiogenesis” (priority 2002, published 2006).

Key:
[1] = Maximum tolerated dose (MTD); design: species or system Balb/c mice; settings: Balb/c, mouse, in vivo
Protocol: N-[4-(1-benzoyl-piperidin-4-yl)-butyl]-3-(pyridin-3-yl)-acrylamide was given to the animals p.o. twice a day on days 10, 11, 12, 13, 14, and 15 after tumor implantation. The doses were 3, 5, 6, or 10 mg/kg per each administration. TNP-470 was injected into the animals s.c. on days 2, 4, 6, 8, 10, 12, 14, 16, 18 and 20 after tumor implantation at the maximum tolerated dose, 30 mg/kg. Control animals received the vehicle (0.9% saline solution) p.o. twice a day on days 10, 11, 12, 13, 14, and 15 after tumor implantation. At least seven animals per test group were used.
TNP-470 was administered at the MTD (maximum tolerated dose), 30 mg/kg, and over a longer time range than BPPA which was given below the MTD (approximately 12 mg/kg).

[2] = tested on: VEGF production in HepG2 cells; assay: VEGF production in HepG2 cells (ELISA of culture supernatant); format: cell-based, human
Protocol: Trypsin/EDTA: 0.05% (w/v) trypsin (Difco, Detroit, USA)+0.016% (w/v) EDTA (Sigma, Deisenhofen, Germany). N-[4-(1-benzoyl-piperidin-4-yl)-butyl]-3-(pyridin-3-yl)-acrylamide (in the following also referred to as BPPA) was synthesized as described in the literature, by the department of chemistry at Klinge Pharma GmbH, Munich, Germany.
Stock solutions of test compound: a 10 mM solution was prepared in dimethyl sulfoxide (DMSO) and stored at −18° C.; further dilution steps were done in ethanol.
The human-derived tumor cell lines HepG2 (liver carcinoma) was obtained from the American Type Culture Collection (ATCC), Rockville, Md., USA.
Richter's Improved Minimal Essential Medium, Zinc Option (IMEM-ZO), was purchased from Gibco BRL, Life Technologies (Eggenstein, Germany). The standard medium MEM and the human serum albumin were purchased from Sigma (Deisenhofen, Germany). The medium powder was dissolved in deionized water, the pH titrated to 7.2 with HCl/NaOH and sterilized by filtration. The medium was supplemented with 10% fetal calf serum (FCS), PAN Systems GmbH, Aidenbach, Germany.
Monolayer cells were detached from 75 cm^2 flasks by removing the growth medium and adding 3 ml trypsin/EDTA solution to each flask. After about 5-10 minutes incubation at 37° C., when the cells were detached from the surface of the dishes, trypsinization was stopped by adding 3 ml Richter's IMEM-ZO medium containing 10% FCS. The cells were suspended by repeated pipetting. For predilution, an aliquot of 20 μl was added to 10 ml Casyton isotonic solution (No. 043-90037P, Scharfe System, Reutlingen, Germany) using a Sysmex Auto Dilutor Type AD-260 (Toa, Medical Electronics Co. Ltd., Kobe, Japan). The cell number was determined by electronic cell volume measurements by counting with a CASY 1 Cell Counter & Analyzer System, Model TTC (Schärfe System, Reutlingen, Germany) equipped with a 60 μm capillary. Following dilution in growth medium (IMEM-ZO), the cells were finally seeded at a density of 25,000 cells per 1000 μl in 24-well culture dishes (Greiner, Frickenhausen, Germany) for the VEGF assay and incubated at 37° C. in a humidified atmosphere of 5% CO2 in air.
After six days of incubation, when the cells were nearly confluent, the medium was removed and cultures were replenished with 1 ml fresh serum free MEM medium containing 0.1% human serum albumin plus the test substance or the solvent ethanol as control. The cells were then incubated at 37° C. in a humidified atmosphere of 5% CO2 in air. On the next day the medium was removed again and the cultures were incubated with further 0.5 ml serum free MEM containing 0.1% human serum albumin plus the test substance or the solvent ethanol as control. After 48 and 72 hours the medium was collected, centrifuged at 1000 rpm for 5 minutes to remove cell debris. Supernatants were stored at −20° C. until quantification of the VEGF concentration. Furthermore the protein content of the remaining cell layer in each well was determined as reference parameter.
VEGF determination was measured in the supernatants of the cell cultures using a commercially available ELISA kit (R&D, Systems, Wiesbaden/Germany). The method for the determination was performed as described in the test kit brochure.
The results are summarized in the following Table 1, where the VEGF concentration in the supernatant after 48 h and 72 h of incubation was determined. […]

[3] = tested on: murine renal cell carcinoma (RENCA); assay: Blood vessel density in primary tumors of murine renal cell carcinoma (RENCA) model; format: in vivo, Balb/c mice; settings: sacrifice day 21
Protocol: Murine RENCA cells were originally obtained from a tumor that arose spontaneously in the kidney of BALB/c mice. Histologically, RENCA consists of granular cell type adenocarcinoma, which is pleomorphic with large nuclei. Monolayers of murine RENCA cells were grown in RPMI 1640 with phenol red supplemented with 10% FCS, 2 mM L-glutamine, 100 units penicillin/ml, and 100 μg of streptomycin/ml. RENCA cells were cultured in a humidified atmosphere of 95% air and-5% carbon dioxide at 37° C. Media were routinely changed every 3 days.
For the in vivo administration N-[4-(1-benzoyl-piperidin-4-yl)-butyl]-3-(pyridin-3-yl)-acrylamide was solubilized in a 0.9% saline solution and TNP-470 in a saline solution containing 3% absolute ethanol.
All experiments were carried out using 6-8 weeks old male Balb/c mice (approximate weight, 20 g). Mice are maintained in separated conventional housing at constant temperature and humidity […]
All animals were sacrificed on day 21 after tumor implantation and the tumor tissue of all animals was surgically removed and quickly frozen in liquid nitrogen. […] For the visualization of the blood vessels, immunohistochemical staining for CD 31 (PECAM-1 and MEC 13.3; PharMingen, San Diego, Calif.) was performed, and vessels were counted microscopically using a defined magnification.

SMILES	MTD ([1]; po) [mg/kg]	VEGF concentration in the supernatant ([2]; 2 nM compound in medium, 48 hours incubation) [pg/200 μl]	VEGF concentration in the supernatant ([2]; 2 nM compound in medium, 72 hours incubation) [pg/200 μl]	VEGF concentration in the supernatant ([2]; 20 nM compound in medium, 48 hours incubation) [pg/200 μl]	VEGF concentration in the supernatant ([2]; 20 nM compound in medium, 72 hours incubation) [pg/200 μl]	inhibition of the production of VEGF ([2]; after 48 hours of incubation, FIG. 1)	vessel density in the RENCA tumor ([3]; 3, 5, 6 and 10 mg/kg p.o. twice a day on days 10-15 after tumor implantation, CD 31 staining)	MTD ([1]; sc) [mg/kg]	vessel density in the RENCA tumor, effectiveness compared to BPPA ([3]; 30 mg/kg (MTD) s.c. on days 2, 4, 6, 8, 10, 12, 14, 16, 18 and 20 after tumor implantation)
O=C(C=Cc1cccnc1)NCCCCC1CCN(C(=O)c2ccccc2)CC1 [BPPA, N-[4-(1-benzoyl-piperidin-4-yl)-butyl]-3-(pyridin-3-yl)-acrylamide]	~12	208.30	0.00	0.00	0.00	inhibited the production of VEGF in HepG2 cells very effectively	significantly reduced the vessel density		
CO[C@@H]1[C@H](OC(=O)NC(=O)CCl)CC[C@]2(CO2)[C@H]1[C@@]1(C)O[C@@H]1CC=C(C)C [TNP-470, reference compound]								30	not as effective as BPPA
